Measured values published in US12655125B2 (SIRONAX LTD., priority 2020, dated 2026).

Test system: HT-29 cells
Experiment: HT29 Cells 0FBS Assay In Vitro (TNF-α/SMAC mimetic/zVAD-FMK induced necroptosis, CellTiter-Glo cell viability)
Assay type: cell-based
Conditions: Homo sapiens; HT-29 cells, FBS free medium, TNF-α (10 ng/ml), SMAC mimetic (6 uM), zVAD-FMK (10 μM), 20 hours; geometric mean EC50; read-out: Cell activity (EC50) of Compounds 117-281
Outline: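 HT-29 cells (5,000/well, seeded overnight) in serum-free McCoy's 5A were stimulated with TNF-α 10 ng/ml, SMAC mimetic 6 μM and zVAD-FMK 10 μM to induce necroptosis. Compound added as 10-point 3-fold series for 20 h at 37° C. CellTiter-Glo luminescence gives viability; EC50 is geometric mean of duplicate dose-responses.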

Q: Which EC50 does the source give for `Cn1nc(C(N)=O)cc1-c1cc(OC2CN(C(=O)N3N=CC[C@H]3c3cc(F)cc(F)c3)C2)c(F)cn1` [compound 172, (S)-5-(4-((1-(5-(3,5-difluorophenyl)-4,5-dihydro-1H-pyrazole-1-carbonyl)azetidin-3-yl)oxy)-5-fluoropyridin-2-yl)-1-methyl-1H-pyrazole-3-carboxamide] here?
A: Its EC50 is 0.1 to 100 nM.

Q: How did the EC50 turn out when `Cn1nc(C#N)cc1-c1cc(OC2CN(C(=O)N3N=CC[C@H]3c3cc(F)cc(F)c3)C2)c(F)cn1` [compound 173, (S)-5-(4-((1-(5-(3,5-difluorophenyl)-4,5-dihydro-1H-pyrazole-1-carbonyl)azetidin-3-yl)oxy)-5-fluoropyridin-2-yl)-1-methyl-11H-pyrazole-3-carbonitrile] was run?
A: The EC50 was 0.1 to 100 nM.

Q: `Cn1nc(CO)cc1-c1cc(OC2CN(C(=O)N3N=CC[C@H]3c3cc(F)cc(F)c3)C2)c(F)cn1` [compound 174, (S)-(5-(3,5-difluorophenyl)-4,5-dihydro-1H-pyrazol-1-yl)(3-((5-fluoro-2-(3-(hydroxymethyl)-1-methyl-1H-pyrazol-5-yl)pyridin-4-yl)oxy)azetidin-1-yl)methanone] was tested. Which EC50 did it give?
A: The EC50 was 0.1 to 100 nM.

Q: For `Cc1c(Cl)nn(C)c1-c1cc(OC2CN(C(=O)N3N=CC[C@H]3c3cc(F)cc(F)c3)C2)c(F)cn1` [compound 175, (S)-(3-((2-(3-chloro-1,4-dimethyl-1H-pyrazol-5-yl)-5-fluoropyridin-4-yl)oxy)azetidin-1-yl)(5-(3,5-difluorophenyl)-4,5-dihydro-1H-pyrazol-1-yl)methanone], which EC50 is on record?
A: The EC50 was 0.1 to 100 nM.

Q: Which EC50 does the source give for `CSc1nn(C)c(-c2cc(OC3CN(C(=O)N4N=CC[C@H]4c4cc(F)cc(F)c4)C3)c(F)cn2)c1C` [compound 176, (S)-(5-(3,5-difluorophenyl)-4,5-dihydro-1H-pyrazol-1-yl)(3-((2-(1,4-dimethyl-3-(methylthio)-1H-pyrazol-5-yl)-5-fluoropyridin-4-yl)oxy)azetidin-1-yl)methanone] here?
A: The EC50 was 0.1 to 100 nM.

Q: With `Cc1c(S(C)(=O)=O)nn(C)c1-c1cc(OC2CN(C(=O)N3N=CC[C@H]3c3cc(F)cc(F)c3)C2)c(F)cn1` [compound 177, (5-(3,5-difluorophenyl)-4,5-dihydro-1H-pyrazol-1-yl)(3-((2-(1,4-dimethyl-3-(methylsulfonyl)-1H-pyrazol-5-yl)-5-fluoropyridin-4-yl)oxy)azetidin-1-yl)methanone] as the compound, how does the EC50 read?
A: The EC50 was 0.1 to 100 nM.

Q: For `CC(O)c1cnn(C)c1-c1cc(OC2CN(C(=O)N3N=CC[C@H]3c3cc(F)cc(F)c3)C2)c(F)cn1` (stereo partly drawn) [compound 179, ((S)-5-(3,5-difluorophenyl)-4,5-dihydro-1H-pyrazol-1-yl)(3-((5-fluoro-2-(4-(1-hydroxyethyl)-1-methyl-1H-pyrazol-5-yl)pyridin-4-yl)oxy)azetidin-1-yl)methanone], which EC50 is on record?
A: Its EC50 is 100 to 1000 nM.

Q: How did the EC50 turn out when `Cc1nc(CO)sc1-c1cc(OC2CN(C(=O)N3N=CC[C@H]3c3cc(F)cc(F)c3)C2)c(F)cn1` [compound 180, (S)-(5-(3,5-difluorophenyl)-4,5-dihydro-1H-pyrazol-1-yl)(3-((5-fluoro-2-(2-(hydroxymethyl)-4-methylthiazol-5-yl)pyridin-4-yl)oxy)azetidin-1-yl)methanone] was run?
A: Its EC50 is 0.1 to 100 nM.

Q: With `Cc1nn(C2CCNCC2)c(C)c1-c1cc(OC2CN(C(=O)N3N=CC[C@H]3c3cc(F)cc(F)c3)C2)c(F)cn1` [compound 181] as the compound, how does the EC50 read?
A: Its EC50 is 0.1 to 100 nM.

Q: With `Cc1cnc(C)n1-c1cc(OC2CN(C(=O)N3N=CC[C@H]3c3cc(F)cc(F)c3)C2)c(F)cn1` [compound 182, (S)-(5-(3,5-difluorophenyl)-4,5-dihydro-1H-pyrazol-1-yl)(3-((2-(2,5-dimethyl-1H-imidazol-1-yl)-5-fluoropyridin-4-yl)oxy)azetidin-1-yl)methanone] as the compound, how does the EC50 read?
A: The EC50 was 0.1 to 100 nM.

Q: How did the EC50 turn out when `Cc1nn(-c2cc(OC3CN(C(=O)N4N=CC[C@H]4c4cc(F)cc(F)c4)C3)c(F)cn2)c(C)c1C(=O)N1CCCCC1` [compound 183, (S)-(5-(3,5-difluorophenyl)-4,5-dihydro-1H-pyrazol-1-yl)(3-((2-(3,5-dimethyl-4-(piperidine-1-carbonyl)-1H-pyrazol-1-yl)-5-fluoropyridin-4-yl)oxy)azetidin-1-yl)methanone] was run?
A: Its EC50 is 0.1 to 100 nM.

Q: `Cc1nn(-c2cc(OC3CN(C(=O)N4N=CC[C@H]4c4cc(F)cc(F)c4)C3)c(F)cn2)c(C)c1C(=O)N1CCOCC1` [compound 184, (S)-(5-(3,5-difluorophenyl)-4,5-dihydro-1H-pyrazol-1-yl)(3-((2-(3,5-dimethyl-4-(morpholine-4-carbonyl)-1H-pyrazol-1-yl)-5-fluoropyridin-4-yl)oxy)azetidin-1-yl)methanone] was tested. Which EC50 did it give?
A: Its EC50 is 0.1 to 100 nM.

Q: Which EC50 does the source give for `Cc1cnn(C)c1-c1ccc(F)c(OC2CN(C(=O)N3N=CC[C@H]3c3cc(F)cc(F)c3)C2)n1` [compound 185, (S)-(5-(3,5-difluorophenyl)-4,5-dihydro-1H-pyrazol-1-yl)(3-((6-(1,4-dimethyl-1H-pyrazol-5-yl)-3-fluoropyridin-2-yl)oxy)azetidin-1-yl)methanone] here?
A: Its EC50 is 0.1 to 100 nM.

Q: How did the EC50 turn out when `Cc1c(C#N)nn(C)c1-c1ccc(F)c(OC2CN(C(=O)N3N=CC[C@H]3c3cc(F)cc(F)c3)C2)n1` [compound 186, (S)-5-(6-((1-(5-(3,5-difluorophenyl)-4,5-dihydro-1H-pyrazole-1-carbonyl)azetidin-3-yl)oxy)-5-fluoropyridin-2-yl)-1,4-dimethyl-1H-pyrazole-3-carbonitrile] was run?
A: The EC50 was 0.1 to 100 nM.

Q: Which EC50 does the source give for `Cc1nn(S(C)(=O)=O)c(C)c1-c1cc(OC2CN(C(=O)N3N=CC[C@H]3c3cc(F)cc(F)c3)C2)c(F)cn1` [compound 187, (S)-(5-(3,5-difluorophenyl)-4,5-dihydro-1H-pyrazol-1-yl)(3-((2-(3,5-dimethyl-1-(methylsulfonyl)-1H-pyrazol-4-yl)-5-fluoropyridin-4-yl)oxy)azetidin-1-yl)methanone] here?
A: The EC50 was 0.1 to 100 nM.

Q: With `Cc1nc(C#N)sc1-c1cc(OC2CN(C(=O)N3N=CC[C@H]3c3cc(F)cc(F)c3)C2)c(F)cn1` [compound 188, (S)-5-(4-((1-(5-(3,5-difluorophenyl)-4,5-dihydro-1H-pyrazole-1-carbonyl)azetidin-3-yl)oxy)-5-fluoropyridin-2-yl)-4-methylthiazole-2-carbonitrile] as the compound, how does the EC50 read?
A: Its EC50 is 0.1 to 100 nM.

Q: How did the EC50 turn out when `Cc1nc(C(N)=O)sc1-c1cc(OC2CN(C(=O)N3N=CC[C@H]3c3cc(F)cc(F)c3)C2)c(F)cn1` [compound 189, (S)-5-(4-((1-(5-(3,5-difluorophenyl)-4,5-dihydro-1H-pyrazole-1-carbonyl)azetidin-3-yl)oxy)-5-fluoropyridin-2-yl)-4-methylthiazole-2-carboxamide] was run?
A: Its EC50 is 0.1 to 100 nM.

Q: Which EC50 does the source give for `Cc1nn(-c2cc(OC3CN(C(=O)N4N=CC[C@H]4c4cc(F)cc(F)c4)C3)c(F)cn2)c(C)c1S(C)(=O)=O` [compound 190, (S)-(5-(3,5-difluorophenyl)-4,5-dihydro-1H-pyrazol-1-yl)(3-((2-(3,5-dimethyl-4-(methylsulfonyl)-1H-pyrazol-1-yl)-5-fluoropyridin-4-yl)oxy)azetidin-1-yl)methanone] here?
A: Its EC50 is 0.1 to 100 nM.

Q: For `Cc1[nH]c(C(N)=O)c(C)c1-c1cc(OC2CN(C(=O)N3N=CC[C@H]3c3cc(F)cc(F)c3)C2)c(F)cn1` [compound 191, (S)-4-(4-((1-(5-(3,5-difluorophenyl)-4,5-dihydro-1H-pyrazole-1-carbonyl)azetidin-3-yl)oxy)-5-fluoropyridin-2-yl)-3,5-dimethyl-1H-pyrrole-2-carboxamide], which EC50 is on record?
A: Its EC50 is 0.1 to 100 nM.
